# Reference: patent US6831199B1, “Pyrimidine compounds and derivatives thereof” (G. D. Searle & Co., priority 1995, dated 2004)
# pIC50: −log10 of the molar value. Where a name gives a salt, the structure may show the parent alone.
# Biological target: T1, Human fibrinogen receptor (αIIbβ3) (Homo sapiens, UniProt P05106+P08514)
# T1 construct: Human fibrinogen receptor (αIIbβ3) was purified from outdated platelets; from tissue; host or cells: outdated human platelets
# Assay: Purified IIb/IIIa receptor assay (solid phase receptor assay, competition with biotinylated vitronectin)
# Format: binding
# Conditions: read-out: IIb/IIIa IC50
# Outline: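 Purified platelet αIIbβ3 coated overnight at 4 °C in TBS with 1.0 mM Ca/Mg/Mn, pH 7.4, then BSA-blocked. Compounds (top 1.0×10^−4 M) competed with 1 nM biotinylated vitronectin for 2 h at room temperature. Bound label detected by HRP anti-biotin, A450; values normalized to no-competitor controls, four-parameter fit.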
# T1 sequence (P08514 32-887 limits assumed): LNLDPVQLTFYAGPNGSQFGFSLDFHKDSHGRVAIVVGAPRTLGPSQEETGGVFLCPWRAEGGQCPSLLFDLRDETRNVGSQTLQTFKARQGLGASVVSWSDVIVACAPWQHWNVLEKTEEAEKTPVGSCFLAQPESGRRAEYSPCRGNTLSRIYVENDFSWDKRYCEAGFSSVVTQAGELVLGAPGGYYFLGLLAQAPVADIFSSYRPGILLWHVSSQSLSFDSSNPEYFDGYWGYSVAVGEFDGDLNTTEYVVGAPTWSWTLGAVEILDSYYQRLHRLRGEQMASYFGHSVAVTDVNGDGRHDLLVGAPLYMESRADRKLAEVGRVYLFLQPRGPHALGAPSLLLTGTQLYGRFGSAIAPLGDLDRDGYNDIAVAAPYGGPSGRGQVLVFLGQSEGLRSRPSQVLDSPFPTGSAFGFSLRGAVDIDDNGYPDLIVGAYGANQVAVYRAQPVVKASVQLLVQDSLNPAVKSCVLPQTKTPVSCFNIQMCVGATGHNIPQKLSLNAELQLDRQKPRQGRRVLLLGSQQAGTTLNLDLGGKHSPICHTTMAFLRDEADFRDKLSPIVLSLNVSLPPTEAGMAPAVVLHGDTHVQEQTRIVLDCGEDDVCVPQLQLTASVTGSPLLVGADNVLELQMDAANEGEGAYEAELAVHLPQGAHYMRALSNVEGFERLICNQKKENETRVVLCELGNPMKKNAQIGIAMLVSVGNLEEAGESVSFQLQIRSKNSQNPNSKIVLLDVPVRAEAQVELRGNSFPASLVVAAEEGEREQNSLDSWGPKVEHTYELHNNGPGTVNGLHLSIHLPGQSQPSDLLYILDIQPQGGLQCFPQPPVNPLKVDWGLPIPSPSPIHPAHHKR
# T1 sequence (P08514 891-1039 limits assumed): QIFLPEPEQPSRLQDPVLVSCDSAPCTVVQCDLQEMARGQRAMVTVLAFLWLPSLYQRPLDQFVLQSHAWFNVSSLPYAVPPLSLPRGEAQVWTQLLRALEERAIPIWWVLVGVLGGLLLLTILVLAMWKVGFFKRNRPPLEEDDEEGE
# T1 sequence (P05106 27-788): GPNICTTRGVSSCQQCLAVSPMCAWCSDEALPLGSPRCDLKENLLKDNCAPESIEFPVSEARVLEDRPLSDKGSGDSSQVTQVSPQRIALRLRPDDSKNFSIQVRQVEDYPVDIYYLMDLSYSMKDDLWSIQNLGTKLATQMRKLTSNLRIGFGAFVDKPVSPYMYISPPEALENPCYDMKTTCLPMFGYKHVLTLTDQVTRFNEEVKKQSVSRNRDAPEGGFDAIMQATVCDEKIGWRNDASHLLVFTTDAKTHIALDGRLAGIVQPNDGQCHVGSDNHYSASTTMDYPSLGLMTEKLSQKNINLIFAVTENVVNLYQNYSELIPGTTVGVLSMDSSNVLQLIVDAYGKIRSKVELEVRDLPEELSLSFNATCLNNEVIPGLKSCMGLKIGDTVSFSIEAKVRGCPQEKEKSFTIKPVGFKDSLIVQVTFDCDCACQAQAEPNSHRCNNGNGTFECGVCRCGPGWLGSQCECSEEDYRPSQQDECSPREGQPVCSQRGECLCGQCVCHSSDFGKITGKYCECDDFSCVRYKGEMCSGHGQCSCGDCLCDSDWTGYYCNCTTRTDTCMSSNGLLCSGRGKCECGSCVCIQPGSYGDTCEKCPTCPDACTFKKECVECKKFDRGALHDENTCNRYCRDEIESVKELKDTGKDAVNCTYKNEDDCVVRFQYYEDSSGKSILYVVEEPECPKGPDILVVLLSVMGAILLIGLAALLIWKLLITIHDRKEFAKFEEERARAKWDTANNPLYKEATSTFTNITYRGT
row,Compound,pIC50
1,"O=C(O)CC(NC(=O)CNC(=O)c1cccc(NC2=NCCC2)c1)c1cccnc1 (stereo not drawn) [Example 17, β-[[2-[[[3-[(3,4-dihydro-2H-pyrrol-5-yl)amino]phenyl]carbonyl]amino]acetyl]amino]pyridine-3-propanoic acid, bis(trifluoroacetate)salt]",6.86
2,"C#C[C@@H](CC(=O)O)NC(=O)CNC(=O)c1cccc(NC(=N)N)c1 [Example 43, 3R-[[2-[[[(3-[(aminoiminomethyl)amino]phenyl]carbonyl]amino]acetyl]amino]-4-pentynoic acid, hydrochloride salt]",5.79
3,"Cc1ccc(S(=O)(=O)CCC(CC(=O)O)NC(=O)CNC(=O)c2cccc(NC(=N)N)c2)cc1 (racemic) [Example 67, (±)3-[[2-[[[3-[(aminoiminomethyl)amino]phenyl]carbonyl]amino]acetyl]amino]-5-[(4-methylphenyl)sulfonyl]pentanoic acid, trifluoroacetate salt]",7.03
4,"Cc1ccc(C(=O)NCC(=O)NC(CC(=O)O)c2cccnc2)cc1NC(=N)N (racemic) [Example 83, (±)β-[[2-[[[3-[(aminoiminomethyl)amino]-4-methylphenyl]carbonyl]amino]acetyl]amino]pyridine-3-propanoic acid, bis(trifluoroacetate)salt]",7.01
5,"O=C(O)CC(NC(=O)CNC(=O)c1cccc(NC2=NCCCCC2)c1)c1ccc2c(c1)OCO2 (racemic) [Example 14, (±)β-[[2-[[[3-[(3,4,5,6-tetrahydro-2H-azepin-7-yl)amino]phenyl]carbonyl]amino]acetyl]amino]-1,3-benzodioxole-5-propanoic acid, TFA salt]",6.86
6,"NC(=S)Nc1cccc(C(=O)NCC(=O)NC(CC(=O)O)c2cccnc2)c1 (stereo not drawn) [Example 114, β-[[2-[[[3-[(aminothioxomethyl)amino]phenyl]carbonyl]amino]acetyl]amino]pyridine-3-propanoic acid, trifluoroacetate salt]",5.53
7,"O=C(O)CC(NC(=O)CNC(=O)c1cccc(NC2=NCCCCC2)c1)c1cccnc1 (racemic) [Example 12, (±)β-[[2-[[[3-[(3,4,5,6-tetrahydro-2H-azepin-7-yl)amino]phenyl]carbonyl]amino]acetyl]amino]pyridine-3-propanoic acid, bis(trifluoroacetate)salt]",6.23
8,"O=C(O)CC(NC(=O)CNC(=O)c1cccc(NC2=NCCN2)c1)c1cccnc1 (racemic) [Example 10, (±)β-[[2-[[[3-[(4,5-dihydro-1H-imidazol-2-yl)amino]phenyl]carbonyl]amino]acetyl]amino]pyridine-3-propanoic acid, bis(trifluoroacetate)salt]",7.26
9,"N=C(N)Nc1cccc(C(=O)NCC(=O)NC(CC(=O)O)c2cc(C(F)(F)F)cc(C(F)(F)F)c2)c1 (racemic) [Example 36, (±)β-[[2-[[[3-[(aminoiminomethyl)amino]phenyl]carbonyl]amino]acetyl]amino]-3,5-bis(trifluoromethyl)benzenepropanoic acid, trifluoroacetate salt]",5.80
10,"N=C(N)Nc1cccc(C(=O)NCC(=O)NC(CC(=O)O)c2ccsc2)c1 (racemic) [Example 59, (±)β-[[2-[[[3-[(aminoiminomethyl)amino]phenyl]carbonyl]amino]acetyl]amino]thiophene-3-propanoic acid, trifluoroacetate salt]",6.76
11,"C#C[C@H](CC(=O)O)NC(=O)CNC(=O)c1cccc(NC(=N)N)c1 [Example 45, 3S-[[2-[[[3-[(aminoiminomethyl)amino]phenyl]carbonyl]amino]acetyl]amino]-4-pentynoic acid, hydrochloride salt]",7.40
12,"Cc1ccc(O)c(C(CC(=O)O)NC(=O)CNC(=O)c2cccc(NC(=N)N)c2)c1 (racemic) [Example 88, (±)β-[[2-[[[3-[(aminoiminomethyl)amino]phenyl]carbonyl]amino]acetyl]amino]-2-hydroxy-5-methylbenzenepropanoic acid, trifluoroacetate salt]",6.02
13,"N=C(N)Nc1cccc(C(=O)NCC(=O)NC(CC(=O)O)c2ccc3ccccc3c2)c1 (racemic) [Example 56, (±)β-[[2-[[[3-[(aminoiminomethyl)amino]phenyl]carbonyl]amino]acetyl]amino]naphthalene-2-propanoic acid, trifluoroacetate salt]",7.19
14,"O=C(O)CC(NC(=O)CNC(=O)c1cccc(NC2=NCCCCC2)c1)c1ccccc1 (racemic) [Example 15, (±)β-[[2-[[[3-[(3,4,5,6-tetrahydro-2H-azepin-7-yl)amino]phenyl]carbonyl]amino]acetyl]amino]benzenepropanoic acid, trifluoroacetate salt]",5.42
15,"NC(=O)Nc1cccc(C(=O)NCC(=O)NC(CC(=O)O)c2cccnc2)c1 (stereo not drawn) [Example 46, β-[[2-[[[3-(aminocarbonylamino)phenyl]carbonyl]amino]acetyl]amino]pyridine-3-propanoic acid, hydrochloride salt]",5.77
16,"N=C(N)Nc1cccc(C(=O)NCC(=O)NC(CC(=O)O)c2cnc3ccccc3c2)c1 (stereo not drawn) [Example 99, β-[[2-[[[3-[(aminoiminomethyl)amino]phenyl]carbonyl]amino]acetyl]amino]quinoline-3-propanoic acid, bis(trifluoroacetate)salt]",8.72
17,"C#C[C@H](CC(=O)O)NC(=O)CNC(=O)c1cccc(NC2=NCCCCC2)c1 [Example 30, βS-[[2-[[[3-[(3,4,5,6-tetrahydro-2H-azepin-7-yl)amino]phenyl]carbonyl]amino]acetyl]amino]-4-pentynoic acid, trifluoroacetate salt]",6.37
18,"N=C(NCc1ccccc1)Nc1cccc(C(=O)NCC(=O)NC(CC(=O)O)c2cccnc2)c1 (racemic) [Example 24, (±)β-[[2-[[[3-[[imino[(phenylmethyl)amino]methyl]amino]phenyl]carbonyl]amino]acetyl]amino]pyridine-3-propanoic acid, bis(trifluoroacetate)salt]",7.23
19,"Cc1ccc(S(=O)(=O)NCC(CC(=O)O)NC(=O)CNC(=O)c2cccc(NC(=N)N)c2)cc1 (stereo not drawn) [Example 65, 3-[[2-[[[3-[(aminoiminomethyl)amino]phenyl]carbonyl]amino]acetyl]amino]-4-[[(4-methylphenyl)sulfonyl]amino]butanoic acid, trifluoroacetate salt]",6.77

# Continued by rising pIC50, values first:
row,pIC50,Compound
1,5.37,"O=C(O)CC(NC(=O)CNC(=O)c1cccc(NC(=O)NCc2ccccc2)c1)c1cccnc1 (racemic) [Example 47, (±)β-[[2-[[[3-[[[(phenylmethyl)amino]carbonyl]amino]phenyl]carbonyl]amino]acetyl]amino]pyridine-3-propanoic acid, hydrochloride salt]"
2,6.33,"N=C(N)Nc1cccc(C(=O)NCC(=O)NC(CC(=O)O)c2ccccc2)c1 (racemic) [Example 4, (±)β-[[2-[[[3-[(aminoiminomethyl)amino]phenyl]carbonyl]amino]acetyl]amino]benzene-propanoic acid, trifluoroacetate salt]"
3,6.69,"N=C(N)Nc1cccc(C(=O)NCC(=O)N[C@@H](CC(=O)O)CS(=O)(=O)c2ccccc2C(=O)O)c1 [Example 71, 2-[[2S-[[2-[[[3-[(aminoiminomethyl)amino]phenyl]carbonyl]amino]acetyl]amino]-2-(carboxymethyl)ethyl]sulfonyl]benzoic acid, TFA salt]"
4,6.72,"N=C(N)Nc1cccc(C(=O)NCC(=O)NC(CC(=O)O)c2cccs2)c1 (racemic) [Example 61, (±)β-[[2-[[[3-[(aminoiminomethyl)amino]phenyl]carbonyl]amino]acetyl]amino]thiophene-2-propanoic acid, trifluoroacetate salt]"
5,6.86,"N=C(N)Nc1cccc(C(=O)NCC(=O)NC(CC(=O)O)c2ccoc2)c1 (racemic) [Example 52, (±)β-[[2-[[[3-[(aminoiminomethyl)amino]phenyl]carbonyl]amino]acetyl]amino]furan-3-propanoic acid, trifluoroacetate salt]"
6,7.13,"Cc1ccc(SCCC(CC(=O)O)NC(=O)CNC(=O)c2cccc(NC(=N)N)c2)cc1 (racemic) [Example 66, (±)3-[[2-[[[3-[(aminoiminomethyl)amino]phenyl]carbonyl]amino]acetyl]amino]-5-[(4-methylphenyl)thio]pentanoic acid, trifluoroacetate salt]"
7,7.79,"N=C(N)Nc1cccc(C(=O)NCC(=O)NC(CCS(=O)(=O)c2ccccc2C(=O)O)CC(=O)O)c1 (racemic) [60(C), (±)2-[3-[[2-[[[3-[(aminoiminomethyl)amino]phenyl]carbonyl]amino]acetyl]amino]-4-carboxybutyl]sulfonyl]benzoic acid, trifluoroacetate]"
8,8.01,"N=C(N)Nc1cc(C(=O)NCC(=O)NC(CC(=O)O)c2cccnc2)c2ccccc2c1 (racemic) [Example 8, (±)β-[[2-[[[3-[(aminoiminomethyl)amino]naphthalen-1-yl]carbonyl]amino]acetyl]amino]pyridine-3-propanoic acid, bis(trifluoroacetate)salt]"
